Data as given in patent US9951068B2 (Proximagen Limited, priority 2013, dated 2018).

Key:
[1] = biological target: human ether a go-go related gene (hERG) K+ channel (Homo sapiens (Human), UniProt Q12809); test: hERG assay, IonWorks patch clamp electrophysiology; format: cell-based; conditions: Chinese Hamster Lung cell line stably expressing hERG; max assay concentration 11 uM
Protocol: Compounds of the invention were tested for inhibition of the human ether a go-go related gene (hERG) K^+ channel using IonWorks patch clamp electrophysiology. 8 Point concentration-response curves were generated on two occasions using 3-fold serial dilutions from the maximum assay concentration (11 uM). Electrophysiological recordings were made from a Chinese Hamster Lung cell line stably expressing the full length hERG channel. Single cell ion currents were measured in the perforated patch clamp configuration (100 ug/mL amphoterocin) at room temperature using an IonWorks Quattro instrument. The internal solution contained 140 mM KCl, 1 mM MgCl2, 1 mM EGTA and 20 mM HEPES and was buffered to pH 7.3. The external solution contained 138 mM NaCl, 2.7 mM KCl, 0.9 mM CaCl2, 0.5 mM MgCl2, 8 mM Na2HPO4 and 1.5 mM KH2PO4, and was buffered to pH 7.3. […] This sequence was repeated 5 times at a frequency of 0.25 Hz. Currents were measured from the tail step at the 5th pulse, and referenced to the holding current. Compounds were incubated for 6-7 min prior to a second measurement of the hERG signal using an identical pulse train. […] A control compound (quinidine) was used (see Table 20 below).

[2] = biological target: purified recombinantly expressed human SSAO (Homo sapiens (Human), UniProt Q16853); test: SSAO enzyme inhibition assay (HRP-coupled hydrogen peroxide detection or 14C-benzaldehyde detection, benzylamine substrate); format: biochemical; conditions: SSAO inhibitory activity, human recombinant SSAO, RT
Protocol: All primary assays were performed at RT. with purified recombinantly expressed human SSAO. Enzyme was prepared essentially as described in Öhman et al. (Protein Expression and Purification 46 (2006) 321-331). In addition, secondary- and selectivity assays were performed using SSAO prepared from various tissues or purified rat recombinant SSAO. The enzyme activity was assayed with benzylamine as substrate by measuring either benzaldehyde production, using ^14C-labeled substrate, or by utilizing the production of hydrogen peroxide in a horseradish peroxidase (HRP) coupled reaction. Briefly, test compounds were dissolved in dimethyl sulfoxide (DMSO) to a concentration of 10 mM. Dose-response measurements were assayed by either creating 1:10 serial dilutions in DMSO to produce a 7 point curve or by making 1:3 serial dilutions in DMSO to produce 11 point curves.
In a horseradish peroxidase (HRP) coupled reaction, hydrogen peroxide oxidation of 10-acetyl-3,7-dihydroxyphenoxazine produced resorufin, which is a highly fluorescent compound (Zhout and Panchuk-Voloshina. Analytical Biochemistry 253 (1997) 169-174; Amplex® Red Hydrogen Peroxide/peroxidase Assay kit, Invitrogen A22188). Enzyme and compounds in 50 mM sodium phosphate, pH 7.4 were set to pre-incubate in flat-bottomed microtiter plates for approximately 15 min before initiating the reaction by addition of a mixture of HRP, benzylamine and Amplex reagent. Benzylamine concentration was fixed at a concentration corresponding to the Michaelis constant, determined using standard procedures. Fluorescence intensity was then measured at several time points during 1-2 h, exciting at 544 nm and reading the emission at 590 nm. For the human SSAO assay final concentrations of the reagents in the assay wells were: SSAO enzyme 1 ug/ml, benzylamine 100 uM, Amplex reagent 20 uM, HRP 0.1 U/mL and varying concentrations of test compound. The inhibition was measured as % decrease of the signal compared to a control without inhibitor (only diluted DMSO). The background signal from a sample containing no SSAO enzyme was subtracted from all data points. Data was fitted to a four parameter logistic model and IC50 values were calculated using the GraphPad Prism 4 or XLfit 4 programs.
SSAO activity was assayed using 14C-labeled benzylamine and analysed by measuring radioactive benzaldehyde. In a white 96-well optiplate (Packard), 20 uL of diluted test compound was pre-incubated at room temperature with 20 uL SSAO enzyme for approximately 15 min with continuous agitation. All dilutions were made with PBS. The reaction was initiated by adding 20 uL of the benzylamine substrate solution containing [7-14C] Benzylamine hydrochloride (CFA589, GE Healthcare). The plate was incubated for 1 h as above after which the reaction was stopped by acidification (10 uL 1M aq HCl). Then 90 uL Micro Scint-E solution (Perkin-Elmer) was added to each well and the plate was continuously mixed for 15 min. Phase separation occurred instantly and activity was read in a Topcount scintillation counter (Perkin-Elmer). In the final reaction well, the human recombinant SSAO concentration was 10 ug/ml. In order to optimize sensitivity, the substrate concentration was decreased as compared to the HRP coupled assay in order to get a higher fraction of radioactive product. In the human SSAO assay, benzylamine concentration was 40 uM (0.2 uCi/mL). Data was analysed as above.

purified recombinantly expressed human SSAO, sequence (Q16853 29-763): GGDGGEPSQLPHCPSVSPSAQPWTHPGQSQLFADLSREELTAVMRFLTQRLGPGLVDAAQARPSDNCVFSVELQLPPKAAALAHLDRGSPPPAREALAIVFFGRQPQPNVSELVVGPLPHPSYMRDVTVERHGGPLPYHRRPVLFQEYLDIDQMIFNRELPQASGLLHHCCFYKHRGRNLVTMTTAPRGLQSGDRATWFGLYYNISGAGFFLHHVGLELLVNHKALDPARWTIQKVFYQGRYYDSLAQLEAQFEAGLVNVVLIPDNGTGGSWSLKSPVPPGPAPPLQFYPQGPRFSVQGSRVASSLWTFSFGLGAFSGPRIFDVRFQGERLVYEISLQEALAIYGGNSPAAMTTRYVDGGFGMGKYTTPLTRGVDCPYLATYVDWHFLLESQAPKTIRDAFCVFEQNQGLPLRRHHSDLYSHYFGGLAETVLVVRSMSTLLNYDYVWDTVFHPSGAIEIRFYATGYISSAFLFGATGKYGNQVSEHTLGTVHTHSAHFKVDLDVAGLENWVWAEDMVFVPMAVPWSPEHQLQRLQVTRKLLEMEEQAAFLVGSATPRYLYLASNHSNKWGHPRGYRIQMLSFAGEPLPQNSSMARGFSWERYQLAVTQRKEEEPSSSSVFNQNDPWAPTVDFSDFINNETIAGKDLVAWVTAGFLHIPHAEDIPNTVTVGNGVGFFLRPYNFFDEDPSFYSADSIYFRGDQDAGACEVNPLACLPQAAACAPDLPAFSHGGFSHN
human ether a go-go related gene (hERG) K+ channel, sequence (Q12809 whole entry): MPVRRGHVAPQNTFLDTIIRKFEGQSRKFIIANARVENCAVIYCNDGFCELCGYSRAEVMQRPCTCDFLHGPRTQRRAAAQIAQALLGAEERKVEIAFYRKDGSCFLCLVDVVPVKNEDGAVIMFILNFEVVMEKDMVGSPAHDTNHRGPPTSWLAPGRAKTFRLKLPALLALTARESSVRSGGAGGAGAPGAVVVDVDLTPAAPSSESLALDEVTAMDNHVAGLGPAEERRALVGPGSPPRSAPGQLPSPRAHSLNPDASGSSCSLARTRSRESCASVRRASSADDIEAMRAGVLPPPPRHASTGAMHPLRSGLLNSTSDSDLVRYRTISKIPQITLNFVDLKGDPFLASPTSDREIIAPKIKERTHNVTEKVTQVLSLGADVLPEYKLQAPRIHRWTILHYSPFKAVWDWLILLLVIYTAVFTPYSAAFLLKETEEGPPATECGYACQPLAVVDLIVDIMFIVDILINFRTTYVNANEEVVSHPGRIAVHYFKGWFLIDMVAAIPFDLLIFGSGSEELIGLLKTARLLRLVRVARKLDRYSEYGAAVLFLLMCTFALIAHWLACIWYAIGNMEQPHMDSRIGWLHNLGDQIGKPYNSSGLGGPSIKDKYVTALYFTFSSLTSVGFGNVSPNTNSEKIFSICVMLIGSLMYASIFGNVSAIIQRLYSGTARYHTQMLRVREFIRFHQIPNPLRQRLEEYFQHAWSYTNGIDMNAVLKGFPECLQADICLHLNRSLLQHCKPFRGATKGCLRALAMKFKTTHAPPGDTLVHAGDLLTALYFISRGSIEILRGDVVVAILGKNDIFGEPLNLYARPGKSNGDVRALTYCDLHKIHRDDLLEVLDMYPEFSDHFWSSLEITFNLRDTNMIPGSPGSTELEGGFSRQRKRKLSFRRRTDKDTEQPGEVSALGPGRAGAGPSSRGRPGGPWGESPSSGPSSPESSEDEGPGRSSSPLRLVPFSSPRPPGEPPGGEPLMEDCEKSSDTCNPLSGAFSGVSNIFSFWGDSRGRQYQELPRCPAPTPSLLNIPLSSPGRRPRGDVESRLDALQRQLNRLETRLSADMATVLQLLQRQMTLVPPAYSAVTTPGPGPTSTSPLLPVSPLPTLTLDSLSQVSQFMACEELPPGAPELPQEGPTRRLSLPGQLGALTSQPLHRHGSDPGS

SMILES	IC50 [1]	IC50 [2]
Clc1ccc(-n2c(-c3cnc(NC4CCOCC4)nc3)nc3ccncc32)cc1 [Example 11, 5-[3-(4-Chlorophenyl)-3H-imidazo[4,5-c]pyridin-2-yl]-N-(oxan-4-yl)pyrimidin-2-amine; bis(trifluoroacetic acid)]	> 10000 nM	< 50 nM
O=C1CN(c2ncc(-c3nc4ccncc4n3-c3ccc(Cl)cc3)cn2)CCN1 [Example 13, 4-{5-[3-(4-Chlorophenyl)-3H-imidazo[4,5-c]pyridin-2-yl]pyrimidin-2-yl}piperazin-2-one]	> 10000 nM	< 50 nM
Cc1cc(N2CCOCC2)ncc1-c1nc2ccncc2n1-c1ccc(F)cc1 [Example 21, 4-{5-[3-(4-Fluorophenyl)-3H-imidazo[4,5-c]pyridin-2-yl]-4-methylpyridin-2-yl}morpholine]	> 10000 nM	< 50 nM
C[C@@H]1CN(c2ncc(-c3nc4ccncc4n3-c3ccc(F)cc3)cn2)C[C@H](C)O1 [Example 23, (2R,6S)-4-{5-[3-(4-Fluorophenyl)-3H-imidazo[4,5-c]pyridin-2-yl]pyrimidin-2-yl}-2,6-dimethylmorpholine]	> 10000 nM	< 50 nM
CC1(C)CN(c2ncc(-c3nc4ccncc4n3-c3ccc(F)cc3)cn2)CCO1 [Example 24, 4-{5-[3-(4-Fluorophenyl)-3H-imidazo[4,5-c]pyridin-2-yl]pyrimidin-2-yl}-2,2-dimethylmorpholine]	> 10000 nM	< 50 nM
CN1CCN(Cc2ccc(-c3nc4ccncc4n3-c3ccc(Cl)cc3)cc2)CC1 [Example 46, 1-({4-[3-(4-Chlorophenyl)-3H-imidazo[4,5-c]pyridin-2-yl]phenyl}methyl)-4-methylpiperazine; formic acid]	> 10000 nM	< 50 nM
Clc1ccc(-n2c(-c3ccc(N4CCNCC4)nc3)nc3ccncc32)cc1 [Example 50, 1-{5-[3-(4-Chlorophenyl)-3H-imidazo[4,5-c]pyridin-2-yl]pyridin-2-yl}piperazine]	> 10000 nM	< 50 nM
Fc1ccc(-n2c(-c3cnc(N4CCOCC4)nc3)nc3ccncc32)cc1 [Example 52, 4-{5-[3-(4-Fluorophenyl)-3H-imidazo[4,5-c]pyridin-2-yl]pyrimidin-2-yl}morpholine]	> 10000 nM	< 50 nM
Fc1ccc(-n2c(-c3cnc(N4CCCC4)nc3)nc3ccncc32)cc1 [Example 69, 5-[3-(4-Fluorophenyl)-3H-imidazo[4,5-c]pyridin-2-yl]-2-(pyrrolidin-1-yl)pyrimidine]	> 10000 nM	< 50 nM
CC1CN(c2ccc(-c3nc4ccncc4n3-c3ccc(F)cc3)cn2)CCO1 (stereo not shown) [Example 70, 4-{5-[3-(4-Fluorophenyl)-3H-imidazo[4,5-c]pyridin-2-yl]pyridin-2-yl}-2-methylmorpholine]	> 10000 nM	< 50 nM
Clc1ccc(-n2c(-c3cnc(N4CCOCC4)nc3)nc3ccncc32)nc1 [Example 75, 4-{5-[3-(5-Chloropyridin-2-yl)-3H-imidazo[4,5-c]pyridin-2-yl]pyrimidin-2-yl}morpholine; tris(trifluoroacetic acid)]	> 10000 nM	< 50 nM
Fc1ccc(-n2c(-c3cnc(N4CCOCC4)nc3)nc3ccncc32)c(F)c1 [Example 78, 4-{5-[3-(2,4-Difluorophenyl)-3H-imidazo[4,5-c]pyridin-2-yl]pyrimidin-2-yl}morpholine]	> 10000 nM	< 50 nM
Clc1ccc(-n2c(-c3ccc(N4CCOCC4)nc3)nc3ccncc32)nc1 [Example 81, 4-{5-[3-(5-Chloropyridin-2-yl)-3H-imidazo[4,5-c]pyridin-2-yl]pyridin-2-yl}morpholine]	> 10000 nM	< 50 nM
Cc1ccc(-n2c(-c3ccc(N4CCOCC4)nc3)nc3ccncc32)nc1 [Example 82, 4-{5-[3-(5-Methylpyridin-2-yl)-3H-imidazo[4,5-c]pyridin-2-yl]pyridin-2-yl}morpholine]	> 10000 nM	< 50 nM
CC(=O)NC1CCN(c2ccc(-c3nc4ccncc4n3-c3ccc(Cl)cc3)cn2)CC1 [Example 85, N-(1-{5-[3-(4-Chlorophenyl)-3H-imidazo[4,5-c]pyridin-2-yl]pyridin-2-yl}piperidin-4-yl)acetamide]	> 10000 nM	< 50 nM
CC(=O)N1CCN(c2ccc(-c3nc4ccncc4n3-c3ccc(F)cc3)cn2)CC1 [Example 86, 1-(4-{5-[3-(4-Fluorophenyl)-3H-imidazo[4,5-c]pyridin-2-yl]pyridin-2-yl}piperazin-1-yl)ethan-1-one]	> 10000 nM	< 50 nM
CS(=O)(=O)N1CCN(c2ccc(-c3nc4ccncc4n3-c3ccc(F)cc3)cn2)CC1 [Example 89, 1-{5-[3-(4-Fluorophenyl)-3H-imidazo[4,5-c]pyridin-2-yl]pyridin-2-yl}-4-methanesulfonylpiperazine]	> 10000 nM	< 50 nM
NC(=O)N1CCN(c2ccc(-c3nc4ccncc4n3-c3ccc(F)cc3)cn2)CC1 [Example 92, 4-{5-[3-(4-Fluorophenyl)-3H-imidazo[4,5-c]pyridin-2-yl]pyridin-2-yl}piperazine-1-carboxamide]	> 10000 nM	< 50 nM
O=C1CN(c2ncc(-c3cc4ccncc4n3-c3ccc(Cl)cc3)cn2)CCN1 [Example 128, 4-{5-[1-(4-Chlorophenyl)-1H-pyrrolo[2,3-c]pyridin-2-yl]pyrimidin-2-yl}piperazin-2-one]	> 10000 nM	< 50 nM
Cn1cncc1-c1cc2ccncc2n1-c1ccc(Cl)cc1 [Example 136, 5-[1-(4-Chlorophenyl)-1H-pyrrolo[2,3-c]pyridin-2-yl]-1-methyl-1H-im idazole]	1000 to 10000 nM	< 50 nM
